What is called IC50 is the concentration at which inhibition is half-maximal.

Starred links: 1 amine or outer side, 2 acyl side, 3 side chain; linkers in the order of their positions; H or OH if unused. Positions of bridges follow the written chain, without caps; N, C: chain ends. Non-standard residues stand in square brackets, D forms with d. Residues, ends and D or L forms follow the SMILES beside them. *: point of attachment. Bip(4'-NHCO-C6H4-4-CH2COOH) = N[C@@H](Cc1ccc(-c2ccc(NC(=O)c3ccc(CC(=O)O)cc3)cc2)cc1)C(=O)O; X5 = Cn1nc(C(=O)Nc2ccc(-c3ccc(C[C@H](N[*:1])C(=O)[*:2])cc3)cc2)c2ccccc21; dArg(Nω-CH2C6H4-3-CH2Gua) = N=C(N)NCc1cccc(CNC(=N)NCCC[C@@H](N)C(=O)O)c1; Bip(4'-NHBz) = N[C@@H](Cc1ccc(-c2ccc(NC(=O)c3ccccc3)cc2)cc1)C(=O)O; Bip(4'-NH) = O=C([C@H](Cc1ccc(-c2ccc(N[*:3])cc2)cc1)N[*:1])[*:2]; Indazole3carbonyl(1-CH2COOH) = O=C(O)Cn1nc(C(=O)*)c2ccccc21; Bip(4'-COOH) = N[C@@H](Cc1ccc(-c2ccc(C(=O)O)cc2)cc1)C(=O)O; Bip(4'-NHAc) = CC(=O)Nc1ccc(-c2ccc(C[C@H](N)C(=O)O)cc2)cc1; Ala(imidazol-2-yl) = N[C@@H](Cc1ncc[nH]1)C(=O)O; Ala(morpholin-4-yl) = N[C@@H](CN1CCOCC1)C(=O)O; Benzoyl(3-OCH2COOH) = O=C(O)COc1cccc(C(=O)*)c1; Phe(3-CONH2) = NC(=O)c1cccc(C[C@H](N)C(=O)O)c1; Benzoyl(4-Ph) = O=C(c1ccc(-c2ccccc2)cc1)*; Bip = N[C@@H](Cc1ccc(-c2ccccc2)cc1)C(=O)O; Tiq1c(1S) = O=C(O)[C@H]1NCCc2ccccc21; cisHyp = O=C(O)[C@@H]1C[C@H](O)CN1; 2Pal = N[C@@H](Cc1ccccn1)C(=O)O; Cha = N[C@@H](CC1CCCCC1)C(=O)O; Tle = CC(C)(C)[C@H](N)C(=O)O; Orn = NCCC[C@H](N)C(=O)O; Sar = CNCC(=O)O

One assay deals with TNFα (Homo sapiens, UniProt P01375). Description: TNF-Induced HEK-Blue Assay. Format: cell-based.
Sequence of TNFα (P01375 77-233 limits assumed): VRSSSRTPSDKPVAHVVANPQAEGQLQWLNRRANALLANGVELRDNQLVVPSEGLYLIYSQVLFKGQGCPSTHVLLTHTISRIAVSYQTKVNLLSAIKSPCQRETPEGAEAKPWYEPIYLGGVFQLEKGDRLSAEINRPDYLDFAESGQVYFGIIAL
Settings: not given
In turn, `CC[C@H](C)[C@@H]1NC(=O)[C@@H](CCCNC(=N)NCc2cccc(CNC(=N)N)c2)NC(=O)[C@H](CC(=O)O)NC(=O)[C@@H]2CCCN2C(=O)CN(C)C(=O)[C@H](Cc2ccc(-c3ccc(NC(=O)c4nn(CC(=O)O)c5ccccc45)cc3)cc2)NC(=O)[C@H](Cc2ccc(-c3ccccc3)cc2)NC(=O)[C@H](CN2CCOCC2)NC(=O)CSC[C@@H](C(=O)NCC(N)=O)NC(=O)[C@H](CC(C)C)NC(=O)[C@H](Cc2cnc[nH]2)NC(=O)[C@H](C(C)C)NC(=O)[C@@H]2CCCN2C1=O` [Example 598] ({CH2CO}-[Ala(morpholin-4-yl)][Bip][Bip(4'-NH)](Indazole3carbonyl(1-CH2COOH))[Sar]PD[dArg(Nω-CH2C6H4-3-CH2Gua)]IPVHLCG-NH2; thioether N-13) showed an IC50 of less than 50 nM. Compound `CC[C@H](C)[C@@H]1NC(=O)[C@@H]2CCCN2C(=O)[C@H]([C@@H](C)CC)NC(=O)[C@@H](CCCNC(=N)N)NC(=O)[C@H](CC(=O)O)NC(=O)[C@H](Cc2ccccn2)NC(=O)CN(C)C(=O)[C@H](Cc2ccc(-c3ccc(NC(=O)c4ccccc4)cc3)cc2)NC(=O)[C@H](Cc2ccc(-c3ccccc3)cc2)NC(=O)[C@H](C(C)(C)C)NC(=O)CSC[C@@H](C(=O)NCC(N)=O)NC(=O)[C@H](CC(C)C)NC(=O)[C@H](Cc2cccc(C(N)=O)c2)NC1=O` [Example 367] ({CH2CO}-[Tle][Bip][Bip(4'-NHBz)][Sar][2Pal]D[dR]IPI[Phe(3-CONH2)]LCG-NH2; thioether N-13) had an IC50 of less than 50 nM.

Still in this assay, the particulars now being: HEK-Blue-CD40L cells, NF-kB-driven secreted alkaline phosphatase reporter; TNFα 0.5 ng/ml; 18 h; read-out: TNF induced HEK-Blue assay IC50 value.
As for `CC(=O)Nc1ccc(-c2ccc(C[C@@H]3NC(=O)[C@H](Cc4ccc(-c5ccccc5)cc4)NC(=O)[C@H](CN4CCOCC4)NC(=O)CSC[C@@H](C(=O)NCC(N)=O)NC(=O)[C@H](CC(C)C)NC(=O)[C@H](Cc4ccc(O)cc4)NC(=O)[C@H](C(C)C)NC(=O)[C@@H]4CCCN4C(=O)[C@H](C(C)C)NC(=O)[C@@H](CCCNC(=N)N)NC(=O)[C@H](CC(=O)O)NC(=O)[C@@H]4C[C@H](O)CN4C(=O)CN(C)C3=O)cc2)cc1` [Example 183] ({CH2CO}-[Ala(morpholin-4-yl)][Bip][Bip(4'-NHAc)][Sar][cisHyp]D[dR]VPVYLCG-NH2; thioether N-13), the IC50 fell in the range of 50 to 200 nM. Take `CC[C@H](C)[C@@H]1NC(=O)[C@@H]2CCCN2C(=O)[C@H]([C@@H](C)CC)NC(=O)[C@@H](CCCNC(=N)N)NC(=O)[C@H](CC(=O)O)NC(=O)[C@H](Cc2ccccc2)NC(=O)CN(C)C(=O)[C@H](Cc2ccc(-c3ccc(NC(=O)c4nn(C)c5ccccc45)cc3)cc2)NC(=O)[C@H](Cc2ccc(-c3ccccc3)cc2)NC(=O)[C@H](CC2CCCCC2)NC(=O)CSC[C@@H](C(=O)NCC(N)=O)NC(=O)[C@H](CC(C)C)NC(=O)[C@H](Cc2ncc[nH]2)NC1=O` [Example 402] ({CH2CO}-[Cha][Bip][X5][Sar]FD[dR]IPI[Ala(imidazol-2-yl)]LCG-NH2; thioether N-13): the IC50 was 50 to 200 nM. The same measure, in the same setting: the value for `CC[C@H](C)[C@@H]1NC(=O)[C@@H](CCCNC(=N)N)NC(=O)[C@H](CC(=O)O)NC(=O)[C@H](Cc2cnc[nH]2)NC(=O)CN(C)C(=O)[C@H](Cc2ccc(-c3ccc(NC(C)=O)cc3)cc2)NC(=O)[C@H](Cc2ccc(-c3ccc(C(=O)O)cc3)cc2)NC(=O)[C@H](CC2CCCCC2)NC(=O)CSC[C@@H](C(=O)NCC(N)=O)NC(=O)[C@H](CC(C)C)NC(=O)[C@H](Cc2cnc[nH]2)NC(=O)[C@H](C(C)C)NC(=O)[C@@H]2c3ccccc3CCN2C1=O` [Example 276] ({CH2CO}-[Cha][Bip(4'-COOH)][Bip(4'-NHAc)][Sar]HD[dR]I[Tiq1c(1S)]VHLCG-NH2; thioether N-13) was less than 50 nM. For the compound `CC(=O)Nc1ccc(-c2ccc(C[C@@H]3NC(=O)[C@H](Cc4ccc(-c5ccccc5)cc4)NC(=O)[C@H](CN4CCOCC4)NC(=O)CSC[C@@H](C(=O)NCC(N)=O)NC(=O)[C@H](C(C)C)NC(=O)[C@H](CCCNC(=N)N)NC(=O)[C@H](C(C)C)NC(=O)[C@@H]4CCCN4C(=O)[C@H](C(C)C)NC(=O)[C@H](CCCNC(=N)N)NC(=O)[C@H](CC(=O)O)NC(=O)[C@@H]4CCCN4C(=O)CN(C)C3=O)cc2)cc1` [Example 89] ({CH2CO}-[Ala(morpholin-4-yl)][Bip][Bip(4'-NHAc)][Sar]PDRVPVRVCG-NH2; thioether N-13), the IC50 lay within 50 to 200 nM.

`CC[C@H](C)[C@@H]1NC(=O)[C@@H]2CCCN2C(=O)[C@H]([C@@H](C)CC)NC(=O)[C@@H](CCCNC(=N)N)NC(=O)[C@H](CC(=O)O)NC(=O)[C@H](Cc2ccccc2)NC(=O)CN(C)C(=O)[C@H](Cc2ccc(-c3ccc(NC(=O)c4cccc(OCC(=O)O)c4)cc3)cc2)NC(=O)[C@H](Cc2ccc(-c3ccc(C(=O)O)cc3)cc2)NC(=O)[C@H](C(C)(C)C)NC(=O)CSC[C@@H](C(=O)NCC(N)=O)NC(=O)[C@H](CC(C)C)NC(=O)[C@H](Cc2cnc[nH]2)NC1=O` [Example 352] ({CH2CO}-[Tle][Bip(4'-COOH)][Bip(4'-NH)](Benzoyl(3-OCH2COOH))[Sar]FD[dR]IPIHLCG-NH2; thioether N-13): the IC50 is less than 50 nM. On the same count and under the same terms, the value for `CC[C@H](C)[C@@H]1NC(=O)[C@@H](CCCNC(=N)N)NC(=O)[C@H](CC(=O)O)NC(=O)[C@H](Cc2cnc[nH]2)NC(=O)CN(C)C(=O)[C@H](Cc2ccc(-c3ccc(NC(=O)c4ccc(CC(=O)O)cc4)cc3)cc2)NC(=O)[C@H](Cc2ccc(-c3ccccc3)cc2)NC(=O)[C@H](CN2CCOCC2)NC(=O)CSC[C@@H](C(=O)NCC(N)=O)NC(=O)[C@H](CC(C)C)NC(=O)[C@H](Cc2cnc[nH]2)NC(=O)[C@H](C(C)C)NC(=O)[C@@H]2CCCN2C1=O` [Example 484] ({CH2CO}-[Ala(morpholin-4-yl)][Bip][Bip(4'-NHCO-C6H4-4-CH2COOH)][Sar]HD[dR]IPVHLCG-NH2; thioether N-13) was less than 50 nM; that for `CC[C@H](C)[C@@H]1NC(=O)[C@@H](CCCNC(=N)N)NC(=O)[C@H](CC(=O)O)NC(=O)[C@H](Cc2ccc(O)cc2)NC(=O)CN(C)C(=O)[C@H](Cc2ccc(-c3ccc(NC(C)=O)cc3)cc2)NC(=O)[C@H](Cc2ccc(-c3ccccc3)cc2)NC(=O)[C@H](C(C)(C)C)NC(=O)CSC[C@@H](C(=O)NCC(N)=O)NC(=O)[C@H](CC(C)C)NC(=O)[C@H](Cc2ccccc2)NC(=O)[C@H](C(C)C)NC(=O)[C@@H]2CCCN2C1=O` [Example 264] ({CH2CO}-[Tle][Bip][Bip(4'-NHAc)][Sar]YD[dR]IPVFLCG-NH2; thioether N-13) was 50 to 200 nM; that for `CC(C)C[C@@H]1NC(=O)[C@H](CCCN)NC(=O)[C@H](C(C)C)NC(=O)[C@@H]2CCCN2C(=O)[C@H](C(C)C)NC(=O)[C@H](CCCNC(=N)N)NC(=O)[C@H](CC(=O)O)NC(=O)[C@@H]2CCCN2C(=O)CN(C)C(=O)[C@H](Cc2ccc(-c3ccccc3)cc2)NC(=O)[C@H](Cc2ccc(-c3ccccc3)cc2)NC(=O)[C@H](Cc2ccccc2)NC(=O)CSC[C@@H](C(=O)NCC(N)=O)NC1=O` [Example 2] ({CH2CO}-F[Bip][Bip][Sar]PDRVPV[Orn]LCG-NH2; thioether N-13) was 200 to 2000 nM. For the compound `CC(=O)Nc1ccc(-c2ccc(C[C@@H]3NC(=O)[C@H](Cc4ccc(-c5ccc(C(=O)O)cc5)cc4)NC(=O)[C@H](CN4CCOCC4)NC(=O)CSC[C@@H](C(=O)NCC(N)=O)NC(=O)[C@H](CC(C)C)NC(=O)[C@H](CCCNC(=N)N)NC(=O)[C@H](C)NC(=O)[C@@H]4CCCN4C(=O)[C@H](C(C)C)NC(=O)[C@@H](CCCNC(=N)N)NC(=O)[C@H](CC(=O)O)NC(=O)[C@@H]4CCCN4C(=O)CN(C)C3=O)cc2)cc1` [Example 198] ({CH2CO}-[Ala(morpholin-4-yl)][Bip(4'-COOH)][Bip(4'-NHAc)][Sar]PD[dR]VPARLCG-NH2; thioether N-13), the IC50 was less than 50 nM. As for `CC(C)C[C@@H]1NC(=O)[C@H](Cc2ccc(O)cc2)NC(=O)[C@H](C(C)C)NC(=O)CNC(=O)[C@H](C(C)C)NC(=O)[C@@H](CCCNC(=N)N)NC(=O)[C@H](CC(=O)O)NC(=O)[C@H](Cc2ccc(O)cc2)NC(=O)CN(C)C(=O)[C@H](Cc2ccc(-c3ccccc3)cc2)NC(=O)[C@H](Cc2ccc(-c3ccccc3)cc2)NC(=O)[C@H](CN2CCOCC2)NC(=O)CSC[C@@H](C(=O)NCC(N)=O)NC1=O` [Example 137] ({CH2CO}-[Ala(morpholin-4-yl)][Bip][Bip][Sar]YD[dR]VGVYLCG-NH2; thioether N-13), the IC50 lay in the range of 200 to 2000 nM.

For the compound `CC[C@H](C)[C@@H]1NC(=O)[C@@H](CCCNC(=N)N)NC(=O)[C@H](CC(=O)O)NC(=O)[C@H](Cc2cnc[nH]2)NC(=O)CN(C)C(=O)[C@H](Cc2ccc(-c3ccc(NC(=O)c4ccc(-c5ccccc5)cc4)cc3)cc2)NC(=O)[C@H](Cc2ccc(-c3ccccc3)cc2)NC(=O)[C@H](CC2CCCCC2)NC(=O)CSC[C@@H](C(=O)NCC(N)=O)NC(=O)[C@H](CC(C)C)NC(=O)[C@H](Cc2cnc[nH]2)NC(=O)[C@H](C(C)C)NC(=O)[C@@H]2CCCN2C1=O` [Example 307] ({CH2CO}-[Cha][Bip][Bip(4'-NH)](Benzoyl(4-Ph))[Sar]HD[dR]IPVHLCG-NH2; thioether N-13), the IC50 lay within 50 to 200 nM. Same read-out and setting: the value for `CC(C)C[C@@H]1NC(=O)[C@H](CCCNC(=N)N)NC(=O)[C@H](C(C)C)NC(=O)[C@@H]2CCCN2C(=O)[C@H](C(C)C)NC(=O)[C@@H](CCCNC(=N)N)NC(=O)[C@H](CC(=O)O)NC(=O)[C@H](Cc2ccc(O)cc2)NC(=O)CNC(=O)[C@H](Cc2ccc(-c3ccccc3)cc2)NC(=O)[C@H](Cc2ccc(-c3ccccc3)cc2)NC(=O)[C@H](CN2CCOCC2)NC(=O)CSC[C@@H](C(=O)NCC(N)=O)NC1=O` [Example 132] ({CH2CO}-[Ala(morpholin-4-yl)][Bip][Bip]GYD[dR]VPVRLCG-NH2; thioether N-13) was 50 to 200 nM. As to `CC(C)C[C@@H]1NC(=O)[C@H](Cc2ccc(O)cc2)NC(=O)[C@H](C(C)C)NC(=O)CN(C)C(=O)[C@H](C(C)C)NC(=O)[C@@H](CCCNC(=N)N)NC(=O)[C@H](CC(=O)O)NC(=O)[C@@H]2CCCN2C(=O)CN(C)C(=O)[C@H](Cc2ccc(-c3ccccc3)cc2)NC(=O)[C@H](Cc2ccc(-c3ccccc3)cc2)NC(=O)[C@H](CN2CCOCC2)NC(=O)CSC[C@@H](C(=O)NCC(N)=O)NC1=O` [Example 136] ({CH2CO}-[Ala(morpholin-4-yl)][Bip][Bip][Sar]PD[dR]V[Sar]VYLCG-NH2; thioether N-13), the IC50 was in the range of 50 to 200 nM.

The values above are taken from patent publication US20250145665A1, “MACROCYCLIC PEPTIDES USEFUL AS MODULATORS OF TNF ALPHA” (Bristol-Myers Squibb Company, priority 2023, published 2025).
